Data published in the supplement of paper PMC10307832.

Columns and labels:
Assay in all cases: relative viability (nuclei count vs DMSO), 5 days (fraction); higher = more cells survive
Tipifarnib + Dasatinib = compound: Cn1cncc1[C@@](N)(c1ccc(Cl)cc1)c1ccc2c(c1)c(-c1cccc(Cl)c1)cc(=O)n2C [Tipifarnib] + Cc1nc(Nc2ncc(C(=O)Nc3c(C)cccc3Cl)s2)cc(N2CCN(CCO)CC2)n1 [Dasatinib] (partner 0.075 µM)
In short: (§1)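 Values are medians from duplicate plates. Each reflects relative viability, defined as the nuclei count of treated wells over that of vehicle wells. Lung cancer cell lines in 1536-well plates were pin-tool dosed one day after seeding with one drug alone or with a fixed anchor-drug dose plus five library-drug doses (not always all listed) in √10 steps, then fixed, stained and imaged at 4× after 5 days.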

Tipifarnib + Navitoclax = compound: Cn1cncc1[C@@](N)(c1ccc(Cl)cc1)c1ccc2c(c1)c(-c1cccc(Cl)c1)cc(=O)n2C [Tipifarnib] + CC1(C)CCC(c2ccc(Cl)cc2)=C(CN2CCN(c3ccc(C(=O)NS(=O)(=O)c4ccc(N[C@H](CCN5CCOCC5)CSc5ccccc5)c(S(=O)(=O)C(F)(F)F)c4)cc3)CC2)C1 [Navitoclax] (partner 0.5 µM)
In short: as §1

Tipifarnib + Luminespib = compound: Cn1cncc1[C@@](N)(c1ccc(Cl)cc1)c1ccc2c(c1)c(-c1cccc(Cl)c1)cc(=O)n2C [Tipifarnib] + CCNC(=O)c1noc(-c2cc(C(C)C)c(O)cc2O)c1-c1ccc(CN2CCOCC2)cc1 [Luminespib] (partner 0.01 µM)
In short: as §1

Tipifarnib + Bortezomib = compound: Cn1cncc1[C@@](N)(c1ccc(Cl)cc1)c1ccc2c(c1)c(-c1cccc(Cl)c1)cc(=O)n2C [Tipifarnib] + CC(C)C[C@H](NC(=O)[C@H](Cc1ccccc1)NC(=O)c1cnccn1)B(O)O [Bortezomib] (partner 0.002 µM)
In short: as §1

Cell Line | relative viability (Tipifarnib + Dasatinib; first compound 0.01 µM) | relative viability (Tipifarnib + Dasatinib; first compound 0.03162 µM) | relative viability (Tipifarnib + Dasatinib; first compound 0.1 µM) | relative viability (Tipifarnib + Dasatinib; first compound 0.3162 µM) | relative viability (Tipifarnib + Dasatinib; first compound 1 µM) | relative viability (Tipifarnib + Navitoclax; first compound 0.01 µM) | relative viability (Tipifarnib + Navitoclax; first compound 0.03162 µM) | relative viability (Tipifarnib + Navitoclax; first compound 0.1 µM) | relative viability (Tipifarnib + Navitoclax; first compound 0.3162 µM) | relative viability (Tipifarnib + Navitoclax; first compound 1 µM) | relative viability (Tipifarnib + Luminespib; first compound 0.01 µM) | relative viability (Tipifarnib + Luminespib; first compound 0.03162 µM) | relative viability (Tipifarnib + Luminespib; first compound 0.1 µM) | relative viability (Tipifarnib + Luminespib; first compound 0.3162 µM) | relative viability (Tipifarnib + Luminespib; first compound 1 µM) | relative viability (Tipifarnib + Bortezomib; first compound 0.01 µM) | relative viability (Tipifarnib + Bortezomib; first compound 0.03162 µM) | relative viability (Tipifarnib + Bortezomib; first compound 0.1 µM) | relative viability (Tipifarnib + Bortezomib; first compound 0.3162 µM) | relative viability (Tipifarnib + Bortezomib; first compound 1 µM)
PC-3 [JPC-3] | 1.01 | 0.994 | 0.99 | 0.679 | 0.532 | 0.814 | 0.648 | 0.749 | 0.532 | 0.416 | 0.74 | 0.694 | 0.66 | 0.458 | 0.409 | 0.873 | 0.629 | 0.698 | 0.609 | 0.427
PC-14 | 0.261 | 0.206 | 0.191 | 0.128 | 0.093 | 1.05 | 0.847 | 0.658 | 0.482 | 0.51 | 0.221 | 0.2 | 0.149 | 0.132 | 0.131 | 1 | 0.873 | 0.555 | 0.453 | 0.464
RERF-LC-KJ | 0.884 | 0.778 | 0.724 | 0.535 | 0.574 | 1.14 | 0.931 | 0.61 | 0.467 | 0.46 | 1.2 | 0.924 | 1.07 | 0.605 | 0.654 | 1.1 | 1.1 | 0.85 | 0.694 | 0.717
SK-LU-1 | 0.16 | 0.152 | 0.156 | 0.14 | 0.133 | 0.779 | 0.488 | 0.435 | 0.25 | 0.405 | 0.252 | 0.212 | 0.208 | 0.236 | 0.193 | 1.12 | 0.508 | 0.626 | 0.614 | 0.36
SW 1573 | 0.379 | 0.33 | 0.297 | 0.217 | 0.198 | 1.05 | 0.678 | 0.49 | 0.407 | 0.331 | 0.208 | 0.164 | 0.239 | 0.166 | 0.187 | 1.13 | 0.752 | 0.691 | 0.45 | 0.49
UMC-11 | 0.419 | 0.441 | 0.422 | 0.357 | 0.29 | 0.263 | 0.211 | 0.235 | 0.191 | 0.194 | 0.99 | 0.845 | 0.711 | 0.665 | 0.621 | 0.667 | 0.498 | 0.465 | 0.447 | 0.242
